{
  "source": "patent US11214803B2",
  "about": "“Modulators of YAP1 expression” (Ionis Pharmaceuticals, Inc., priority 2019, dated 2022)",
  "format_in_all_cases": "cell-based",
  "key": {"Yap1 mRNA [1]": {"tested_on": "Yap1 mRNA", "test": "Antisense inhibition of human Yap1 in A-431 cells by cEt gapmers, single dose (Example 1, RTS4814)", "outline": "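Free uptake of 2,000 nM 3-10-3 cEt gapmer (16-mer, full phosphorothioate, 5-methylcytosines) in A-431 cells for ~48 h. Yap1 mRNA quantified by qRT-PCR with set RTS4814, normalized to total RNA (RiboGreen), and expressed as % of untreated control; asterisked values target the amplicon region.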"}, "Yap1 mRNA [2]": {"tested_on": "Yap1 mRNA", "test": "Antisense inhibition of human Yap1 in A-431 cells by cEt gapmers, single dose (Example 3, RTS36584)", "conditions": "A-431 cells, 5,000 cells per well", "outline": "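A-431 cells were treated by free uptake with 2,000 nM modified oligonucleotide (3-10-3 cEt gapmers, full phosphorothioate, 5-methylcytosines) for about 48 hours. Yap1 mRNA was quantified by real-time RT-PCR, normalized to RiboGreen total RNA, and expressed as % of untreated control; asterisked values mark oligonucleotides targeting the amplicon region.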"}, "Yap1 mRNA [3]": {"tested_on": "Yap1 mRNA", "test": "Antisense inhibition of human Yap1 in SNU-449 cells by modified oligonucleotides, single dose (Example 5, RTS36584)", "outline": "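SNU-449 cells (10,000/well) took up 2,000 nM oligonucleotide by free uptake for about 48 h. Yap1 mRNA was measured by qRT-PCR with primer probe set RTS36584 and normalised to RIBOGREEN total RNA. Values are % of untreated control; asterisked oligos target the amplicon region.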"}, "[4]": {"conditions": "A-431 cells, 5,000 cells per well, free uptake, 2,000 nM modified oligonucleotide, approx. 48 hours, RTS4814, normalized to RIBOGREEN, Table 3"}, "[5]": {"conditions": "Table 8, free uptake, 2,000 nM, approximately 48 hours, RTS36584, normalized to RIBOGREEN, Yap1 mRNA relative to untreated control cells"}, "[6]": {"conditions": "Table 1, A-431 cells, free uptake, 2,000 nM, approximately 48 hours, RTS4814, Yap1 mRNA relative to untreated control cells"}, "[7]": {"conditions": "Table 2, A-431 cells, free uptake, 2,000 nM, approximately 48 hours, RTS4814, Yap1 mRNA relative to untreated control cells"}},
  "note": "Strand notation (5' to 3'): a small letter for the sugar, then the base; units joined by * are phosphorothioate-linked, units joined directly phosphodiester-linked; [ ] holds rarer units or linkages, { } end groups; capitals alone tell only the bases. k = constrained ethyl (cEt); [5mC] = 5-methylcytosine; d = 2'-deoxy (DNA)",
  "data": [
    {"substance": "715483 (antisense k[5mC]*kT*k[5mC]*dT*dT*dT*dG*dG*dA*dA*dA*d[5mC]*d[5mC]*kA*kT*kT) [Compound 715483]", "values": [
      {"measurement": "YAP1 (% UTC)", "setting": "Yap1 mRNA [1]; [4]", "result": 15, "unit": "% UTC"},
      {"measurement": "YAP1 (% UTC)", "setting": "Yap1 mRNA [2]; [5]", "result": 2, "unit": "% UTC"},
      {"measurement": "YAP1 (% UTC)", "setting": "Yap1 mRNA [2]; Table 9, free uptake, 2,000 nM, approximately 48 hours, RTS36584, normalized to RIBOGREEN, Yap1 mRNA relative to untreated control cells", "result": 1, "unit": "% UTC"},
      {"measurement": "YAP1 (% UTC)", "setting": "Yap1 mRNA [2]; Table 10, free uptake, 2,000 nM oligonucleotide, approx. 48 hours, primer probe set RTS36584, Yap1 mRNA normalized to RIBOGREEN, percent of untreated control", "result": 2, "unit": "% UTC"},
      {"measurement": "YAP1 (% UTC)", "setting": "Yap1 mRNA [2]; Table 11, free uptake, 2,000 nM oligonucleotide, approx. 48 hours, primer probe set RTS36584, Yap1 mRNA normalized to RIBOGREEN, percent of untreated control", "result": 1, "unit": "% UTC"},
      {"measurement": "YAP1 (% UTC)", "setting": "Yap1 mRNA [2]; Table 12, free uptake, 2,000 nM modified oligonucleotide, approx. 48 hours, RTS36584, normalized to RIBOGREEN, Yap1 mRNA relative to untreated control cells", "result": 1, "unit": "% UTC"},
      {"measurement": "YAP1 (% UTC)", "setting": "Yap1 mRNA [2]; Table 13, free uptake, 2,000 nM modified oligonucleotide, approx. 48 hours, RTS36584, normalized to RIBOGREEN, Yap1 mRNA relative to untreated control cells", "result": 1, "unit": "% UTC"}
    ]},
    {"substance": "715487 (antisense kA*kT*kT*dA*d[5mC]*dT*dT*d[5mC]*dA*dT*dA*dG*d[5mC]*kT*kT*kA) [Compound 715487]", "values": [
      {"measurement": "YAP1 (% UTC)", "setting": "Yap1 mRNA [1]; [6]", "result": 22, "unit": "% UTC"},
      {"measurement": "YAP1 (% UTC)", "setting": "Yap1 mRNA [3]; Table 39, SNU-449 cells, 10,000 cells per well, free uptake, 2,000 nM oligonucleotide, approx. 48 hours, RTS36584, normalized to RIBOGREEN, Yap1 mRNA relative to untreated control", "result": 12, "unit": "% UTC"},
      {"measurement": "YAP1 (% UTC)", "setting": "Yap1 mRNA [3]; Table 40 (separate experiment), SNU-449 cells, 10,000 cells per well, free uptake, 2,000 nM oligonucleotide, approx. 48 hours, RTS36584, normalized to RIBOGREEN, Yap1 mRNA relative to untreated control", "result": 28, "unit": "% UTC"},
      {"measurement": "YAP1 (% UTC)", "setting": "Yap1 mRNA [3]; Table 41, SNU-449 cells, 10,000 cells per well, free uptake, 2,000 nM modified oligonucleotide, approximately 48 hours, RTS36584, normalized to RIBOGREEN, Yap1 mRNA relative to untreated control cells", "result": 28, "unit": "% UTC"},
      {"measurement": "YAP1 (% UTC)", "setting": "Yap1 mRNA [3]; Table 42 (separate experiment), SNU-449 cells, 10,000 cells per well, free uptake, 2,000 nM modified oligonucleotide, approximately 48 hours, RTS36584, normalized to RIBOGREEN, Yap1 mRNA relative to untreated control cells", "result": 29, "unit": "% UTC"},
      {"measurement": "YAP1 (% UTC)", "setting": "Yap1 mRNA [3]; Table 43 experiment, SNU-449 cells, 10,000 cells per well, free uptake, 2,000 nM, approximately 48 hours, RTS36584, Yap1 mRNA normalized to RIBOGREEN, relative to untreated control cells", "result": 25, "unit": "% UTC"},
      {"measurement": "YAP1 (% UTC)", "setting": "Yap1 mRNA [3]; Table 44 experiment, SNU-449 cells, 10,000 cells per well, free uptake, 2,000 nM, approximately 48 hours, RTS36584, Yap1 mRNA normalized to RIBOGREEN, relative to untreated control cells", "result": 18, "unit": "% UTC"},
      {"measurement": "YAP1 (% UTC)", "setting": "Yap1 mRNA [3]; Table 45, Yap1 mRNA as percent of untreated control, SNU-449 cells, single dose", "result": 28, "unit": "% UTC"},
      {"measurement": "YAP1 (% UT)", "setting": "Yap1 mRNA [3]; Table 46, Yap1 mRNA as percent of untreated control, SNU-449 cells, single dose", "result": 25, "unit": "% UT"},
      {"measurement": "YAP1 (% UT)", "setting": "Yap1 mRNA [3]; Table 48, Yap1 mRNA level relative to untreated control, modified oligonucleotides targeting SEQ ID NO.: 1 and 2", "result": 34, "unit": "% UT"},
      {"measurement": "YAP1 (% UT)", "setting": "Yap1 mRNA [3]; Table 49, Yap1 mRNA level relative to untreated control, modified oligonucleotides targeting SEQ ID NO.: 1 and 2", "result": 30, "unit": "% UT"},
      {"measurement": "YAP1 (% UT)", "setting": "Yap1 mRNA [3]; Table 50, Yap1 mRNA remaining as percent of untreated control (UT), SNU-449 cells, single dose", "result": 31, "unit": "% UT"},
      {"measurement": "YAP1 (% UT)", "setting": "Yap1 mRNA [3]; Table 51, Yap1 mRNA remaining as percent of untreated control (UT), SNU-449 cells, single dose", "result": 24, "unit": "% UT"},
      {"measurement": "YAP1 (% UT)", "setting": "Yap1 mRNA [3]; Table 52, Yap1 mRNA, modified oligonucleotides targeting SEQ ID NO: 1 and 2", "result": 29, "unit": "% UT"},
      {"measurement": "YAP1 (% UT)", "setting": "Yap1 mRNA [3]; Yap1 mRNA, percent of untreated control, modified oligonucleotides targeting SEQ ID NO: 1 and 2, Table 47", "result": 39, "unit": "% UT"}
    ]},
    {"substance": "715491 (antisense kA*kA*k[5mC]*d[5mC]*dA*dA*d[5mC]*dT*dA*dT*dT*dA*d[5mC]*kT*kT*k[5mC]) [Compound 715491]", "values": [
      {"measurement": "YAP1 (% UTC)", "setting": "Yap1 mRNA [1]; [7]", "result": 71, "unit": "% UTC"},
      {"measurement": "YAP1 (% UTC)", "setting": "Yap1 mRNA [2]; [5]", "result": 8, "unit": "% UTC"}
    ]},
    {"substance": "715454 (antisense kA*kT*kA*dG*dG*dT*dG*d[5mC]*d[5mC]*dA*d[5mC]*dT*dG*kT*kT*kA) [Compound 715454]", "values": [
      {"measurement": "YAP1 (% UTC)", "setting": "Yap1 mRNA [1]; [6]", "result": 78, "unit": "% UTC"}
    ]},
    {"substance": "715626 (antisense kA*k[5mC]*k[5mC]*dT*dG*dA*d[5mC]*dA*dT*dT*dT*dT*dG*kG*kA*kG) [Compound 715626]", "values": [
      {"measurement": "YAP1 (% UTC)", "setting": "Yap1 mRNA [1]; [7]", "result": 64, "unit": "% UTC"}
    ]},
    {"substance": "715436 (antisense kT*kG*kG*d[5mC]*dA*dA*dA*dA*d[5mC]*dG*dA*dG*dG*kG*kT*k[5mC]) [Compound 715436]", "values": [
      {"measurement": "YAP1 (% UTC)", "setting": "Yap1 mRNA [1]; [6]", "result": 126, "unit": "% UTC"}
    ]},
    {"substance": "715420 (kG*kA*kT*dT*dT*dA*dA*dG*dA*dA*dG*dT*dA*kT*k[5mC]*kT; antisense) [Compound 715420]", "values": [
      {"measurement": "YAP1 (% UTC)", "setting": "Yap1 mRNA [1]; [4]", "result": 107, "unit": "% UTC"}
    ]},
    {"substance": "715529 (kT*kG*kA*dA*dA*d[5mC]*d[5mC]*dT*dG*dA*dT*d[5mC]*d[5mC]*kT*kT*kT; antisense) [Compound 715529]", "values": [
      {"measurement": "YAP1 (% UTC)", "setting": "Yap1 mRNA [1]; [6]", "result": 148, "unit": "% UTC"}
    ]},
    {"substance": "715599 (antisense kT*kT*k[5mC]*d[5mC]*d[5mC]*dA*dA*dG*d[5mC]*dT*dA*d[5mC]*d[5mC]*k[5mC]*kA*kA) [Compound 715599]", "values": [
      {"measurement": "YAP1 (% UTC)", "setting": "Yap1 mRNA [1]; [7]", "result": 82, "unit": "% UTC"}
    ]},
    {"substance": "715528 (kA*kA*kA*d[5mC]*d[5mC]*dT*dG*dA*dT*d[5mC]*d[5mC]*dT*dT*kT*kG*kA; antisense) [Compound 715528]", "values": [
      {"measurement": "YAP1 (% UTC)", "setting": "Yap1 mRNA [1]; [4]", "result": 98, "unit": "% UTC"}
    ]},
    {"substance": "715475 (antisense kA*kG*k[5mC]*dT*dT*dT*d[5mC]*dT*dT*dT*dA*dT*d[5mC]*kT*kA*kG) [Compound 715475]", "values": [
      {"measurement": "YAP1 (% UTC)", "setting": "Yap1 mRNA [1]; [6]", "result": 103, "unit": "% UTC"}
    ]}
  ]
}
